The text below walks through data of ChEMBL document CHEMBL5712891, “Inhibition of BET bromodomain-dependent XIAP and FLIP expression sensitizes KRAS-mutated NSCLC to pro-apoptotic agents” (Cell Death Dis, 2016).

The structures appear in SMILES notation. Calls of active or inactive are those of the source. The rule behind the calls is not given here.

Experiment [1] has as its system A549. Briefly: Induction of apoptosis in human A549 cells assessed as viable cells at 1 uM in presence of cisplatin by annexin V-PI based flow cytometric analysis (reference value: 95.7%). In kind it is functional. The settings on record: read-out: Activity. (In general: Flow cytometry measures light scatter and fluorescence of single cells or particles in a stream.)

For experiment [2], the system named is A549. Briefly: Induction of cell cycle arrest in human A549 cells assessed as accumulation of cells at S phase at 0.5 uM for 24 hrs by Click-iT EdU Alexa Fluor 647 flow cytometric assay kit analysis (reference value: 35%). The class given is functional.
Experiment [3] concerns DV-90. Briefly: Downregulation of c-MYC protein expression level in human DV-90 cells at 1 uM for 24 hrs by […] analysis. The class given is functional, cell-based. For orientation: Quantitative PCR measures a nucleic acid by following its amplification.
The subject of experiment [4] is A549. Briefly: Induction of cell cycle arrest in human A549 cells assessed as accumulation of cells at G0/G1 phase at 0.25 uM for 24 hrs by Click-iT EdU Alexa Fluor 647 flow cytometric assay kit analysis (reference value: 61%). In kind it is functional.
Experiment [5] has as its system NCI-H358. Briefly: Downregulation of XIAP mRNA expression level in human NCI-H358 cells at 0.1 to 1 uM for 24 hrs by qRT-PCR analysis. In kind it is functional, cell-based. The note with it: dose 0.1-1 µM.
Experiment [6] has as its system A549. Briefly: Downregulation of FLIP mRNA expression level in human A549 cells at 0.1 to 1 uM for 24 hrs by qRT-PCR analysis. The note with it: dose 0.1-1 µM. The class given is functional, cell-based.
Experiment [7] concerns A549. Briefly: Antiproliferative activity against human A549 cells at 500 to 2500 nM in presence of TNF by cell titre glo assay. The class given is functional, cell-based. The settings on record: dose 500-2500 nM.
The test system of a further experiment is LCLC-97TM1. Briefly: Downregulation of FLIP mRNA expression level in human LCLC-97TM1 cells at 0.1 to 1 uM for 24 hrs by qRT-PCR analysis. In kind it is functional, cell-based. The note with it: dose 0.1-1 µM.
Another experiment relates to NCI-H2030. Briefly: Downregulation of c-MYC mRNA expression level in human NCI-H2030 cells at 0.1 to 1 uM for 24 hrs by qRT-PCR analysis. The class given is functional, cell-based. The note with it: dose 0.1-1 µM.
Experiment [8] has as its system NCI-H1373. Briefly: Induction of apoptosis in human NCI-H1373 cells assessed as viable cells at 0.5 uM for 24 hrs by annexin V-PI staining based flow cytometric analysis (reference value: 77.7%). In kind it is functional. The note with it: read-out: Activity.
The subject of experiment [9] is NCI-H460. Briefly: Induction of apoptosis in human NCI-H460 cells assessed as viable cells at 2.5 uM for 24 hrs by annexin V-PI staining based flow cytometric analysis (reference value: 94%). In kind it is functional. The note with it: read-out: Activity.
The subject of experiment [10] is DV-90. Briefly: Induction of cell cycle arrest in human DV-90 cells assessed as accumulation of cells at G2/M phase at 0.1 uM for 24 hrs by Click-iT EdU Alexa Fluor 647 flow cytometric assay kit analysis (reference value: 24%). In kind it is functional.
In experiment [11] the test system is A549. Briefly: Induction of cell cycle arrest in human A549 cells assessed as accumulation of cells at S phase at 1 uM for 24 hrs by DAPI staining analysis (reference value: 36%). The class given is functional.
In experiment [12] the test system is DV-90. Briefly: Induction of cell cycle arrest in human DV-90 cells assessed as accumulation of cells at G2/M phase at 0.5 uM for 24 hrs by Click-iT EdU Alexa Fluor 647 flow cytometric assay kit analysis (reference value: 24%). The class given is functional.
Experiment [13] relates to NCI-H1373. Briefly: Induction of cell cycle arrest in human NCI-H1373 cells assessed as accumulation of cells at G0/G1 phase at 1 uM for 24 hrs by Click-iT EdU Alexa Fluor 647 flow cytometric assay kit analysis (reference value: 40%). The class given is functional.
Experiment [14] has as its system NCI-H358. Briefly: Downregulation of XIAP protein expression level in human NCI-H358 cells at 1 uM for 24 hrs by […] analysis. The class given is functional, cell-based.
For experiment [15], the system named is NCI-H358. Briefly: Downregulation of c-MYC mRNA expression level in human NCI-H358 cells at 0.1 to 1 uM for 24 hrs by qRT-PCR analysis. In kind it is functional, cell-based. The note with it: dose 0.1-1 µM.
The test system of experiment [16] is NCI-H1373. Briefly: Induction of apoptosis in human NCI-H1373 cells assessed as late apoptotic cells at 0.5 uM for 24 hrs by annexin V-PI staining based flow cytometric analysis (reference value: 16.2%). The class given is functional.
For experiment [17], the system named is NCI-H1373. Briefly: Induction of cell cycle arrest in human NCI-H1373 cells assessed as accumulation of cells at G2/M phase at 0.5 uM for 24 hrs by Click-iT EdU Alexa Fluor 647 flow cytometric assay kit analysis (reference value: 13%). In kind it is functional.
In experiment [18] the test system is A549. Briefly: Induction of apoptosis in human A549 cells assessed as late apoptotic cells at 1 uM in presenc of cisplatin by annexin V-PI based flow cytometric analysis (reference value: 2.5%). In kind it is functional.
The test system of experiment [19] is DV-90. Briefly: Induction of cell cycle arrest in human DV-90 cells assessed as accumulation of cells at G0/G1 phase at 0.1 uM for 24 hrs by Click-iT EdU Alexa Fluor 647 flow cytometric assay kit analysis (reference value: 45%). In kind it is functional.
In experiment [20] the test system is DV-90. Briefly: Induction of cell cycle arrest in human DV-90 cells assessed as accumulation of cells at S phase at 0.5 uM for 24 hrs by Click-iT EdU Alexa Fluor 647 flow cytometric assay kit analysis (reference value: 30%). In kind it is functional.
Experiment [21] relates to DV-90. Briefly: Induction of cell cycle arrest in human DV-90 cells assessed as accumulation of cells at S phase at 0.1 uM for 24 hrs by Click-iT EdU Alexa Fluor 647 flow cytometric assay kit analysis (reference value: 30%). The class given is functional.
Experiment [22] concerns DV-90. Briefly: Induction of cell cycle arrest in human DV-90 cells assessed as accumulation of cells at S phase at 1 uM for 24 hrs by Click-iT EdU Alexa Fluor 647 flow cytometric assay kit analysis (reference value: 30%). In kind it is functional.
In experiment [23] the test system is NCI-H460. Briefly: Induction of cell cycle arrest in human NCI-H460 cells assessed as accumulation of cells at G0/G1 phase at 1 uM for 24 hrs by Click-iT EdU Alexa Fluor 647 flow cytometric assay kit analysis (reference value: 45%). The class given is functional.
Experiment [24] has as its system A549. Briefly: Induction of apoptosis in human A549 cells assessed as late apoptotic cells at 2.5 uM for 24 hrs by annexin V-PI staining based flow cytometric analysis (reference value: 1.2%). In kind it is functional.
For experiment [25], the system named is NCI-H460. Briefly: Induction of apoptosis in human NCI-H460 cells assessed as necrotic cells at 2.5 uM for 24 hrs by annexin V-PI staining based flow cytometric analysis (reference value: 3.2%). The class given is functional.
Experiment [26] deals with NCI-H460. Briefly: Induction of apoptosis in human NCI-H460 cells assessed as late apoptotic cells at 2.5 uM for 24 hrs by annexin V-PI staining based flow cytometric analysis (reference value: 3.7%). The class given is functional.
The subject of experiment [27] is NCI-H460. Briefly: Induction of apoptosis in human NCI-H460 cells assessed as early apoptotic cells at 0.5 uM for 24 hrs by annexin V-PI staining based flow cytometric analysis (reference value: 0.3%). In kind it is functional.
For experiment [28], the system named is DV-90. Briefly: Induction of apoptosis in human DV-90 cells assessed as viable cells at 0.5 uM for 48 hrs by annexin V-PI staining based flow cytometric analysis (reference value: 81.9%). The note with it: DV-90, 48 h.
The subject of experiment [29] is NCI-H460. Briefly: Induction of apoptosis in human NCI-H460 cells assessed as early apoptotic cells at 2.5 uM for 24 hrs by annexin V-PI staining based flow cytometric analysis (reference value: 0.3%). The class given is functional.
Experiment [30] concerns NCI-H460. Briefly: Induction of apoptosis in human NCI-H460 cells assessed as viable cells at 2.5 uM for 24 hrs by annexin V-PI staining based flow cytometric analysis (reference value: 92.8%). The settings on record: read-out: Activity. In kind it is functional.

In the case of `Cc1sc2c(c1C)C(c1ccc(Cl)cc1)=N[C@@H](CC(=O)OC(C)(C)C)c1nnc(C)n1-2`, the viability at 1 µM with A549 [1] is 58.9%. The Activity with A549 [2] came to 33%; with A549 [4], 63%; in the experiment with DV-90 [10], 31%; with A549 [11], 32%; with DV-90 [12] it was 30%; in the experiment on NCI-H1373 [13] it was 68%. For the same compound, the Activity came out at 20.2% in the experiment with NCI-H1373 [16], 22% in the experiment with NCI-H1373 [17] and 28.5% in the experiment on A549 [18]. For the same compound, the outcome in the experiment with DV-90 [3], in the experiment with NCI-H358 [5], with A549 [6], in the experiment with A549 [7], in the experiment with LCLC-97TM1 and in the experiment with NCI-H2030 was Active. For the same compound, the outcome in the experiment on NCI-H358 [14] and with NCI-H358 [15] was Active. The viability at 0.5 µM in the experiment on NCI-H1373 [8] worked out at 64.3%. For the same compound, the viability at 2.5 µM with NCI-H460 [9] stood at 90.4%.

Turning to `CCNC(=O)C[C@@H]1N=C(c2ccc(Cl)cc2)c2cc(OC)ccc2-n2c(C)nnc21` [MOLIBRESIB], the Activity turned out to be 46% in the experiment on DV-90 [19]; 25% with DV-90 [20]; 27% in the experiment on DV-90 [21]; 22% in the experiment on DV-90 [22]; 52% in the experiment with NCI-H460 [23].

For `Cc1sc2c(c1C)C(c1ccc(Cl)cc1)=N[C@@H](CC(=O)Nc1ccc(O)cc1)c1nnc(C)n1-2` [BIRABRESIB], the Activity in the experiment with A549 [24] is on record as 1.5%; with NCI-H460 [25] it was 3.9%; with NCI-H460 [26], 5.1%; in the experiment with NCI-H460 [27], 0.2%; in the experiment with NCI-H460 [29], 0.6%. The viability at 0.5 µM in the experiment on DV-90 [28] came out at 57.6%. The viability at 2.5 µM in the experiment on NCI-H460 [30] came to 90.4%.
